From US20250019387A1 (Frontier Medicines Corporation, priority 0001, published 2025)

Experiments:
[1] = molecular target: KRAS G12C and cRAF (Ras-binding domain) interaction (Homo sapiens (Human), UniProt P01116, C118S/C51S/C80L/G12C); test: Inhibition of KRAS G12C and cRAF binding (AlphaScreen); conditions: GMPPNP-loaded KRAS G12C, 19-20 hours incubation with compound; read-out: IC50 (Inhibition of KRAS G12C and cRAF Binding)
Outline: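 IC50 values come from 4-parameter nonlinear regression of AlphaScreen signal (680 nm excitation, 570 nm emission). Compound plates sat 19-20 h at room temperature before RBD and donor/acceptor beads were added in Hepes pH 7.4 buffer with 150 mM NaCl, 5 mM MgCl2, 2% DMSO for 60-90 min; biotin-AviTag-GST replaced RBD to flag assay-technology interferers.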

[2] = molecular target: KRAS G12C and PI3Ka (Ras-binding domain) interaction (Homo sapiens (Human), UniProt P01116, C118S/C51S/C80L/G12C); test: Inhibition of KRAS G12C and PI3Ka binding (AlphaScreen); conditions: GMPPNP-loaded KRAS G12C, 2 hours incubation with compound; read-out: PI3Ka RBD IC50
Experimental: Compounds were diluted in 100% DMSO and each compound concentration was spotted at 200 nl/well onto low volume, white 384 well plates. […] The KRAS GT2C was diluted in 25 mM Hepes, pH 7.4, 150 mM NaCl, 5 mMv MgCl2, 0.0100 TritonX-100 and 10 μM GMPPNP and added at 10 ul/well to compound-spotted plates resulting in a […] concentration of 2%. Plates were incubated for 2 hours. A mixture of RBD and the AlphaScreen streptavidin donor and nickel chelate acceptor beads diluted in 25 mMv Hepes, pH 7.4, 150 mMv NaCl, 5 mM MgCl2, 0.0100 TritonX-100 and 2% DMSO was then added at 10 ul/well and incubated for 60-90 minutes before the samples were read for emission at 570 nm after excitation of the donor beads at 680 nm. All incubations were performed at room temperature. […] Final assay conditions were 1.5 nM KRAS GT2C, 100 nM RBD, 1.25 ug/ml of AlphaScreen donor beads and 10 μg/ml AlphaLISA acceptor beads. IC50S were determined using nonlinear regression fit of [inhibitor]vs. response (4 parameters). […]

Chain of KRAS G12C and cRAF (Ras-binding domain) interaction (P01116 other isoform, or with tags, fused parts or gaps G12C/C51S/C80L/C118S): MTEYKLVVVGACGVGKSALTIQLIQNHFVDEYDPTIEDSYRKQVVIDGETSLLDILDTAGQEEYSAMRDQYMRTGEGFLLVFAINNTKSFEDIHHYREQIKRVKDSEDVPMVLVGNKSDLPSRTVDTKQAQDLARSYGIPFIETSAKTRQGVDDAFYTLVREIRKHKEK
Chain of KRAS G12C and PI3Ka (Ras-binding domain) interaction (P01116 other isoform, or with tags, fused parts or gaps G12C/C51S/C80L/C118S): as above

Compound | IC50 [1] [nM] | IC50 [2] [nM]
CN(CC1CN(C(=O)/C=C/c2nc(C3CC3)no2)C1)c1nc(OCC23CCCN2CCC3)nc2c1CCN(c1cccc3cccc(Cl)c13)C2 [Example 172, (E)-1-(3-(((7-(8-chloronaphthalen-1-yl)-2-((hexahydro-1H-pyrrolizin-7a-yl)methoxy)-5,6,7,8-tetrahydropyrido[3,4-d]pyrimidin-4-yl)(methyl)amino)methyl)azetidin-1-yl)-3-(3-cyclopropyl-1,2,4-oxadiazol-5-yl)prop-2-en-1-one] | 10 to 100 | 10 to 100
CCc1noc(/C=C/C(=O)N2CC(CN(C)c3nc(OCC45CCCN4CCC5)nc4c3CCN(c3cccc5cccc(Cl)c35)C4)C2)n1 [Example 168, (E)-1-(3-(((7-(8-chloronaphthalen-1-yl)-2-((hexahydro-1H-pyrrolizin-7a-yl)methoxy)-5,6,7,8-tetrahydropyrido[3,4-d]pyrimidin-4-yl)(methyl)amino)methyl)azetidin-1-yl)-3-(3-ethyl-1,2,4-oxadiazol-5-yl)prop-2-en-1-one] | 10 to 100 | 10 to 100
C=CC(=O)N1CC[C@@H](N(C)c2nc(OCC34CCCN3CCC4)nc3c(F)c(-c4cccc5cccc(F)c45)ncc23)C1 [Example 259, (R)-1-(3-((8-fluoro-7-(8-fluoronaphthalen-1-yl)-2-((tetrahydro-1H-pyrrolizin-7a(5H)-yl)methoxy)pyrido[4,3-d]pyrimidin-4-yl)(methyl)amino)pyrrolidin-1-yl)prop-2-en-1-one] | 100 to 500 | 10 to 100
CN(c1nc(OC[C@@]23CCCN2C[C@H](F)C3)nc2c1CCN(c1cccc3cccc(Cl)c13)C2)[C@@H]1CCN(C(=O)/C=C/c2nc([C@H]3C[C@@H]3F)no2)C1 [Example 130, (E)-1-((R)-3-((7-(8-chloronaphthalen-1-yl)-2-(((2R,7aS)-2-fluorohexahydro-1H-pyrrolizin-7a-yl)methoxy)-5,6,7,8-tetrahydropyrido[3,4-d]pyrimidin-4-yl)(methyl)amino)pyrrolidin-1-yl)-3-(3-((1R,2S)-2-fluorocyclopropyl)-1,2,4-oxadiazol-5-yl)prop-2-en-1-one] | 10 to 100 | 10 to 100
CN(c1nc(OC[C@@]23CCCN2C[C@H](F)C3)nc2c(F)c(-c3cccc4cccc(Cl)c34)ncc12)[C@@H]1CCN(C(=O)/C=C/c2nc([C@H]3C[C@@H]3F)no2)C1 [Example 140, (E)-1-((R)-3-((7-(8-chloronaphthalen-1-yl)-8-fluoro-2-(((2R,7aS)-2-fluorohexahydro-1H-pyrrolizin-7a-yl)methoxy)pyrido[4,3-d]pyrimidin-4-yl)(methyl)amino)pyrrolidin-1-yl)-3-(3-((1R,2S)-2-fluorocyclopropyl)-1,2,4-oxadiazol-5-yl)prop-2-en-1-one] | 10 to 100 | 10 to 100
CN1C[C@H](O)C[C@H]1C#CC(=O)N1CC[C@@H](N(C)c2nc(OC[C@@]34CCCN3C[C@H](F)C4)nc3c(F)c(-c4cccc5cccc(Cl)c45)ncc23)C1 [Example 247, 1-((R)-3-((7-(8-chloronaphthalen-1-yl)-8-fluoro-2-(((2R,7aS)-2-fluorohexahydro-1H-pyrrolizin-7a-yl)methoxy)pyrido[4,3-d]pyrimidin-4-yl)(methyl)amino)pyrrolidin-1-yl)-3-((2S,4R)-4-hydroxy-1-methylpyrrolidin-2-yl)prop-2-yn-1-one] | < 10 | 10 to 100
CN1C[C@@H](O)C[C@@H]1C#CC(=O)N1CC[C@@H](N(C)c2nc(OC[C@@]34CCCN3C[C@H](F)C4)nc3c(F)c(-c4cccc5cccc(Cl)c45)ncc23)C1 [Example 248, 1-((R)-3-((7-(8-chloronaphthalen-1-yl)-8-fluoro-2-(((2R,7aS)-2-fluorohexahydro-1H-pyrrolizin-7a-yl)methoxy)pyrido[4,3-d]pyrimidin-4-yl)(methyl)amino)pyrrolidin-1-yl)-3-((2R,4S)-4-hydroxy-1-methylpyrrolidin-2-yl)prop-2-yn-1-one] | 10 to 100 | 10 to 100
CN(CC1CN(C(=O)/C=C/c2nc([C@H]3C[C@@H]3F)no2)C1)c1nc(OC[C@@]23CCCN2C[C@H](F)C3)nc2c(F)c(-c3cccc4cccc(Cl)c34)ncc12 [Example 139, (E)-1-(3-(((7-(8-chloronaphthalen-1-yl)-8-fluoro-2-(((2R,7aS)-2-fluorotetrahydro-1H-pyrrolizin-7a(5H)-yl)methoxy)pyrido[4,3-d]pyrimidin-4-yl)(methyl)amino)methyl)azetidin-1-yl)-3-(3-((1R,2S)-2-fluorocyclopropyl)-1,2,4-oxadiazol-5-yl)prop-2-en-1-one] | 10 to 100 | 10 to 100
C=CC(=O)N1CC[C@@H](N(C)c2nc(OC[C@@]34CCCN3C[C@H](F)C4)nc3c(F)c(-c4cccc5cccc(F)c45)ncc23)C1 [Example 258, 1-((R)-3-((8-fluoro-7-(8-fluoronaphthalen-1-yl)-2-(((2R,7aS)-2-fluorotetrahydro-1H-pyrrolizin-7a(5H)-yl)methoxy)pyrido[4,3-d]pyrimidin-4-yl)(methyl)amino)pyrrolidin-1-yl)prop-2-en-1-one] | 10 to 100 | 10 to 100
